{"source": "BindingDB's records for PubMed 18089823", "about": "(Harvard Medical School)", "target": "3-phosphoinositide-dependent protein kinase 1 (Homo sapiens) (UniProt O15530)", "assay": "Inhibition of recombinant PDK1 (unknown origin)"}
{"molecule": "COc1cc2ncnc(Nc3ccc(F)c(Cl)c3)c2cc1NC(=O)/C=C/CN1CCCCC1", "note": "[DACOMITINIB]", "values": [{"measurement": "IC50", "value": "> 10", "unit": "µM"}]}
